Experimental data: patent US20140194517A1, “Treatment of Graft-Versus-Host Disease Disorders using RAR Antagonists” (Io Therapeutics, Inc., priority 2013, published 2014)

Tested on: B10.BR recipients (acute GVHD)
Test: Acute GVHD after allogeneic BMT: lethally irradiated B10.BR recipients given B6 BM and splenocytes
Type: in vivo, mice
Conditions: 15×10^6 splenocytes, ATRA 200 μg/mouse IP daily day 0 to 28
Description: FIG. 3. Heightened RA levels and RAR-α signaling exacerbates GVHD. Survival and weight curves of lethally irradiated B10.BR recipients (n=8/group) injected with 10^7 BM and 15×10^6 splenocytes from B6 mice. Subgroups were treated with vehicle (filled circles) or all trans retinoic acid (ATRA) (open circles) p=0.013.
FIG. 4. Heightened RA levels and RAR-α signaling exacerbates GVHD. Survival and weight curves of lethally irradiated B10.BR recipients (n=8/group) injected with 10^7 BM and 5×10^6 splenocytes from B6 mice. Subgroups were treated with vehicle (filled circles) or ATRA (open circles) p=0.037.
To determine whether heightened vitamin A signaling would augment acute GVHD, B10.BR recipients given BM with or without 15×10^6 splenocytes from B6 mice were given ATRA (200 μg/mouse IP) daily from day 0 to 28. […] These findings indicate heightened vitamin A levels and RAR signaling can enhance GVHD lethality.

For `CC1=C(/C=C/C(C)=C/C=C/C(C)=C/C(=O)O)C(C)(C)CCC1` [ATRA, all trans retinoic acid], the GVHD lethality (p=0.013 vs vehicle) was “significant increase”, the “median survival time (MST)” value (vehicle 21.5 days) was 9 days and the weight loss (vs vehicle) was “accelerated weight loss”.
